Read-outs that look alike come from different tables or passages of the source.
Molecular target: T1, F508delCFTR (Homo sapiens, UniProt P13569, DEL508-508)
T1 construct: expressed in transfected cells; host or cells: CFBE41o- human lung-derived epithelial cells (CFBE4lo-F508delCFTR-HRP), doxycycline-inducible
Test: Cell Surface Expression-Horse Radish Peroxidase (CSE-HRP) Assay;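 as to Maximum % activity (with co-corrector): co-corrector and positive control are both the same reference corrector at 2 µM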
Type: cell-based
Settings: for Maximum % activity (with co-corrector): with co-corrector (2 μM); for Maximum % activity (with co-corrector) / Emax: maximum at any tested concentration, normalized to on-plate positive control; for Emax: without co-corrector, read-out: Maximum % activity (without co-corrector)
Procedure: Cell Surface Expression-Horse Radish Peroxidase (CSE-HRP) Assay;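 as to Maximum % activity (with co-corrector): co-corrector and positive control are both the same reference corrector at 2 µM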
The development was achieved by expressing the F508delCFTR mutation along with a horseradish peroxidase (HRP) in the fourth exofacial loop, and then measuring the HRP activity using luminescence readout from these cells, CFBE4lo-F508delCFTR-HRP, that were incubated overnight with the test corrector compounds, either without or with the co-corrector. […] The test compounds were then added either without or with a co-corrector at the required concentrations and further incubated for 18-24 hours at 33° C. The highest concentration tested was 20 μM with an 8-point concentration response curve using a 3-fold dilution in both the test compound without or with the co-corrector. Three replicate plates were run to determine one EC50. All plates contained negative controls (dimethyl sulfoxide, DMSO) and positive control (2 μM of 3-[(2R,4R)-4-({[1-(2,2-difluoro-1,3-benzodioxol-5-yl)cyclopropyl]carbonyl}amino)-7-methoxy-3,4-dihydro-2H-chromen-2-yl]benzoic acid) as well as on-plate concentration response of the positive control. […] The raw counts from the experiment were analyzed using Accelrys® Assay Explorer v3.3.
1−[3*SDPositive Control+3*SDNegative Control/Absolute(MeanPositive Control−MeanNegative Control)]
wherein “SD” is standard deviation.
The % activity measured at each of the 8 test concentrations of the test compound added either without or with a co-corrector (2 μM of 3-[(2R,4R)-4-({[1-(2,2-difluoro-1,3-benzodioxol-5-yl)cyclopropyl]carbonyl}amino)-7-methoxy-3,4-dihydro-2H-chromen-2-yl]benzoic acid) was normalized to the on-plate positive control using the following formulae:
% activity(Test compound without co-corrector)=[(test compound without co-corrector response−DMSO response)/(positive control response−DMSO response)]*100
% activity(Test compound with co-corrector)=[(test compound with co-corrector response−DMSO response)/(positive control response−DMSO response)]*100
The maximum % activity achieved for the test compound either without or with a co-corrector at any tested concentration is presented in Table 4 along with the respective EC50's calculated using the following general sigmoidal curve with variable Hill slope equation (described as Model 42 in the Accelrys® Assay Explorer v3.3 software):
General sigmoidal curve with concentration, response, top, bottom, EC50 and Hill slope. This model describes a sigmoidal curve with an adjustable baseline, a. The equation can be used to fit curves where response is either increasing or decreasing with respect to the independent variable, “x”.
“x” is a concentration of drug under test. “y” is the response. “a” is the maximum response, and “d” is the minimum response “c” is the inflection point (EC50) for the curve. That is, “y” is halfway between the lower and upper asymptotes when x=c. “b” is the slope-factor or Hill coefficient. The sign of b is positive when the response increases with increasing dose and is negative when the response decreases with increasing dose (inhibition).

[1] = test compound without co-corrector, read-out: EC50 (without co-corrector)
[2] = with co-corrector (2 μM of 3-[(2R,4R)-4-({[1-(2,2-difluoro-1,3-benzodioxol-5-yl)cyclopropyl]carbonyl}amino)-7-methoxy-3,4-dihydro-2H-chromen-2-yl]benzoic acid), read-out: EC50 (with co-corrector)

T1 sequence (P13569 with tags, fused parts or gaps DEL508-508): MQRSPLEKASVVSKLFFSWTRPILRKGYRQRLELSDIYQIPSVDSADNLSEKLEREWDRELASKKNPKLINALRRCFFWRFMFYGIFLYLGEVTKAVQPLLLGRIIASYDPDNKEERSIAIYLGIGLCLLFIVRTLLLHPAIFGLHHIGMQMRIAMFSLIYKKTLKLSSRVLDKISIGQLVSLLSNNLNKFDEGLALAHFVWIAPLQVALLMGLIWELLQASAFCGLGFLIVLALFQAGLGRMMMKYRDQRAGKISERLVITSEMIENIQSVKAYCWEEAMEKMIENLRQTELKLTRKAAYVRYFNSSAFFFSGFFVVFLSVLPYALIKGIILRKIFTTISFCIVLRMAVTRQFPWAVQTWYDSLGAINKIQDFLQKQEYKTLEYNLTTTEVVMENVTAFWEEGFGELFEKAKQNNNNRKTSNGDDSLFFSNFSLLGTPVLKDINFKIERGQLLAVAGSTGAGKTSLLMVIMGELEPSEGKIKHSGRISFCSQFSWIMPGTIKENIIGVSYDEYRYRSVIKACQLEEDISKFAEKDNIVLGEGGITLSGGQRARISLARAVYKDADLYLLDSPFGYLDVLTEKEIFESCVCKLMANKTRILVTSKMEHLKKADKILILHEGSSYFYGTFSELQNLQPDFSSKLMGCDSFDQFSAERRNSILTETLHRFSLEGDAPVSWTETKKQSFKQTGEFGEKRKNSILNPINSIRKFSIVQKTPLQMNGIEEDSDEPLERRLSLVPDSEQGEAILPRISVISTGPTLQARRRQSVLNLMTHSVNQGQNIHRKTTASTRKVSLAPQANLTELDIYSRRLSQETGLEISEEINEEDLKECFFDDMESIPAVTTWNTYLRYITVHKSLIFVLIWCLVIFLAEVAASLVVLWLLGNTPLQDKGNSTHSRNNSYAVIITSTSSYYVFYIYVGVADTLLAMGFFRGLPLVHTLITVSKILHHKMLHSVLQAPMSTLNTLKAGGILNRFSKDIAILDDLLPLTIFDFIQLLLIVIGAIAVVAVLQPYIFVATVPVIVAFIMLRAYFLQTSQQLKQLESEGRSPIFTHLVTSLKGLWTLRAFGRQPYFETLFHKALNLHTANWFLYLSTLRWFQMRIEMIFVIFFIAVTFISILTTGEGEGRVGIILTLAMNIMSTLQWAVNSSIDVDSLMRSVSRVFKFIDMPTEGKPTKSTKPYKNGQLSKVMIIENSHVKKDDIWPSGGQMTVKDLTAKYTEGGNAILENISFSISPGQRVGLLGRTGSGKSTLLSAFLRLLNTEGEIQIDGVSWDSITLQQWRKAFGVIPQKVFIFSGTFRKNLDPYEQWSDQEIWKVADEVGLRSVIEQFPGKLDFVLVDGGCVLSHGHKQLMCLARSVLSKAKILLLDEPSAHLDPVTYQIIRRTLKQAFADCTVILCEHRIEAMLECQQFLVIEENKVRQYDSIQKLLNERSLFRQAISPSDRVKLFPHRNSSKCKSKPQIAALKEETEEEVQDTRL

Structure (SMILES) | EC50 [1] [µM] | EC50 [2] [µM] | Maximum % activity (with co-corrector) | Emax [%]
Cc1cc(C(F)(F)F)cc(N[C@@H]2[C@@H](C(C)(C)C)[C@H](C(=O)O)N(C(=O)C3CCCCC3)[C@@H]2c2ccccc2)n1 (racemic) [Example 1, rac-(2R,3R,4R,5R)-3-tert-butyl-1-(cyclohexanecarbonyl)-4-{[6-methyl-4-(trifluoromethyl)pyridin-2-yl]amino}-5-phenylpyrrolidine-2-carboxylic acid] | 1 to 10 | 1 to 10 | +++ (≥350) | < 100
COc1cc(C(F)(F)F)cc(N[C@@H]2[C@@H](C(C)(C)C)[C@H](C(=O)O)N(C(=O)C3CCCCC3)[C@@H]2c2ccccc2)n1 (racemic) [Example 2, rac-(2R,3R,4R,5R)-3-tert-butyl-1-(cyclohexanecarbonyl)-4-{[6-methoxy-4-(trifluoromethyl)pyridin-2-yl]amino}-5-phenylpyrrolidine-2-carboxylic acid] | 1 to 10 | 1 to 10 | +++ (≥350) | < 100
COC(C)(C)[C@@H]1[C@@H](Nc2cc(C(F)(F)F)cc(C)n2)[C@@H](c2ccccc2)N(C(=O)C2CCCCC2)[C@H]1C(=O)O (racemic) [Example 5, rac-(2R,3R,4R,5R)-1-(cyclohexanecarbonyl)-3-(2-methoxypropan-2-yl)-4-{[6-methyl-4-(trifluoromethyl)pyridin-2-yl]amino}-5-phenylpyrrolidine-2-carboxylic acid] | 1 to 10 | 1 to 10 | +++ (≥350) | < 100
COc1ccc(C(F)(F)F)cc1CN[C@@H]1[C@@H](C(C)(C)OC)[C@H](C(=O)O)N(C(=O)C2CCCCC2)[C@@H]1c1ccccc1 (racemic) [Example 6, rac-(2R,3R,4R,5R)-1-(cyclohexanecarbonyl)-3-(2-methoxypropan-2-yl)-4-({[2-methoxy-5-(trifluoromethyl)phenyl]methyl}amino)-5-phenylpyrrolidine-2-carboxylic acid] | 1 to 10 | 1 to 10 | +++ (≥350) | > 200
COc1cc(OC)nc(N[C@@H]2[C@@H](C(C)(C)C)[C@H](C(=O)O)N(C(=O)C3CCCCC3)[C@@H]2c2ccccc2)n1 (racemic) [Example I-1] | 1 to 10 | 1 to 10 | +++ (≥350) | < 100
COc1cc(Cl)nc(N[C@@H]2[C@@H](C(C)(C)C)[C@H](C(=O)O)N(C(=O)C3CCCCC3)[C@@H]2c2ccccc2)n1 (racemic) [Example I-2] | 1 to 10 | 1 to 10 | +++ (≥350) | < 100
CC(N[C@@H]1[C@@H](C(C)(C)C)[C@H](C(=O)O)N(C(=O)C2CCCCC2)[C@@H]1c1ccccc1)c1ccc2c(c1)OC(F)(F)O2 (mixture of isomers) [Example I-3] | > 10 | 1 to 10 | ++ (≥150 and <350) | < 100
COc1c(CN[C@@H]2[C@@H](C(C)(C)C)[C@H](C(=O)O)N(C(=O)C3CCCCC3)[C@@H]2c2ccccc2)c(C)nn1C (racemic) [Example I-4] | > 10 | 1 to 10 | + (<150) | < 100
CC(C)(C)[C@@H]1[C@@H](Nc2nccc(C(F)(F)F)n2)[C@@H](c2ccccc2)N(C(=O)C2CCCCC2)[C@H]1C(=O)O (racemic) [Example I-5] | 1 to 10 | 1 to 10 | +++ (≥350) | < 100
COc1ccc(C(F)(F)F)cc1CN[C@@H]1[C@@H](C(C)(C)C)[C@H](C(=O)O)N(C(=O)C2CCCCC2)[C@@H]1c1ccccc1 (racemic) [Example I-6] | 1 to 10 | 1 to 10 | +++ (≥350) | > 200
Cc1cc(C(F)(F)F)cc(N[C@@H]2[C@@H](C3CC3)[C@H](C(=O)O)N(C(=O)C3CCCCC3)[C@@H]2c2ccccc2)n1 (racemic) [Example I-7] | 1 to 10 | 1 to 10 | ++ (≥150 and <350) | < 100
COc1ccc(C(F)(F)F)cc1C(C)N[C@@H]1[C@@H](C(C)(C)C)[C@H](C(=O)O)N(C(=O)C2CCCCC2)[C@@H]1c1ccccc1 (mixture of isomers) [Example I-8] | 1 to 10 | 1 to 10 | ++ (≥150 and <350) | < 100
COc1cc(N[C@H]2[C@H](C(C)(C)C)[C@@H](C(=O)O)N(C(=O)C3CCCCC3)[C@H]2c2ccccc2)nc(OC)n1 (racemic) [Example I-9] | > 10 | 1 to 10 | ++ (≥150 and <350) | < 100
COc1cc(C(F)(F)F)cc(N[C@@H]2[C@@H](C(C)(C)C)[C@H](C(=O)O)N(C(=O)OC(C)C)[C@@H]2c2ccccc2)n1 (racemic) [Example I-10] | 1 to 10 | 1 to 10 | +++ (≥350) | < 100
CC(C)(C)[C@@H]1[C@@H](NCc2ccccc2OC(F)F)[C@@H](c2ccccn2)N(C(=O)C2CCCCC2)[C@H]1C(=O)O (racemic) [Example I-11] | 1 to 10 | 1 to 10 | ++ (≥150 and <350) | < 100
COc1ccc(Cl)cc1CN[C@@H]1[C@@H](C(C)(C)C)[C@H](C(=O)O)N(C(=O)OC(C)C)[C@@H]1c1ccccc1 (racemic) [Example I-12] | 1 to 10 | 1 to 10 | +++ (≥350) | > 200
Cc1cc(C(F)(F)F)nc(N[C@@H]2[C@@H](C(C)(C)C)[C@H](C(=O)O)N(C(=O)OC(C)C)[C@@H]2c2ccccc2)n1 (racemic) [Example I-13] | 1 to 10 | 1 to 10 | ++ (≥150 and <350) | < 100
COc1ccc(OC(F)F)c(CN[C@@H]2[C@@H](C(C)(C)C)[C@H](C(=O)O)N(C(=O)C3CCCCC3)[C@@H]2c2ccccc2)c1 (racemic) [Example I-14] | > 10 | 1 to 10 | ++ (≥150 and <350) | < 100
COc1ncc(C(F)(F)F)cc1N[C@@H]1[C@@H](C(C)(C)C)[C@H](C(=O)O)N(C(=O)C2CCCCC2)[C@@H]1c1ccccc1 (racemic) [Example I-15] | < 1 | < 1 | +++ (≥350) | < 100
COc1cccc([C@@H]2[C@H](NCc3ccccc3OC(F)F)[C@@H](C(C)(C)C)[C@H](C(=O)O)N2C(=O)C2CCCCC2)n1 (racemic) [Example I-16] | 1 to 10 | 1 to 10 | +++ (≥350) | < 100
Cc1cc(C(F)(F)F)cc(N[C@H]2[C@@H](c3ccccc3)N(C(=O)C3CCCCC3)[C@@H](C(=O)O)C23CC3)n1 (racemic) [Example I-17] | 1 to 10 | 1 to 10 | ++ (≥150 and <350) | < 100
COc1cccc([C@@H]2[C@H](NCc3ccccc3OC(F)F)[C@@H](C(C)(C)C)[C@H](C(=O)O)N2C(=O)C2CCCCO2)n1 (mixture of isomers) [Example I-18] | 1 to 10 | 1 to 10 | +++ (≥350) | < 100
COc1cccc([C@@H]2[C@H](NCc3cc(C(F)(F)F)ccc3OC)[C@@H](C(C)(C)C)[C@H](C(=O)O)N2C(=O)C2CCCCC2)n1 (racemic) [Example I-19] | 1 to 10 | 1 to 10 | +++ (≥350) | 100 to 200
CC(C)(C)[C@@H]1[C@@H](Nc2cccc(OC(F)F)n2)[C@@H](c2ccccc2)N(C(=O)C2CCCCC2)[C@H]1C(=O)O (racemic) [Example I-21] | 1 to 10 | 1 to 10 | +++ (≥350) | < 100

From patent publication US20180099931A1 (AbbVie S.à.r.l., priority 2016, published 2018)
